Measured values from patent publication US4022791A (priority 1975, dated 1977).

Key:
mice [1] = details: mouse, in vivo, ip
mice [2] = assay: Toxicity and adverse effects noted (comments), mice; type: in vivo, mouse; details: at 32 mg./kg.
Description: (§1) The tabulated test results include comments regarding toxicity and adverse effects noted with certain compounds.

mice [3] = details: mouse, in vivo, ip; remark: listed apart in the source
mice [4] = assay: animal or person; type: in vivo, mouse; details: ip
Rats [5] = test system: Rats; design: Rat Jump .5 hr (current at which the animal first jumps) / Rat Jump .5 hr, second value printed in parentheses / Rat Jump 2 hr (current at which the animal first jumps): unit not given here; details: in vivo, ip
Rats [6] = details: rat, in vivo, ip
Rats [7] = assay: Toxicity and adverse effects noted (comments), rats; type: in vivo, rat; details: for loss of righting reflex (rats): at 100 mg./kg.
Description: as §1

[8] = Toxicity and adverse effects noted (comments), species not stated; type: in vivo; details: at 100 mg./kg.
Description: as §1

[9] = Analgesic and tranquilizing effectiveness, summary of Examples 10 and 11; type: in vivo

| Compound | Hot Plate 2 hr (percentage of mice showing analgesia) (mice [1]) | Hot Plate .5 hr (percentage of mice showing analgesia) (mice [1]) | mice died (mice [2]) | Tail Flick 2 hr (percentage of analgesia response) (mice [3]) | Tail Flick .5 hr (percentage of analgesia response) (mice [3]) | Tail Pinch 2 hr (percentage of mice showing analgesia) (mice [4]; mouse, in vivo) | Tail Pinch .5 hr (percentage of mice showing analgesia) (mice [4]; mouse, in vivo) | Rat Jump 2 hr (current at which the animal first jumps) (Rats [5]) | Rat Jump .5 hr (current at which the animal first jumps) (Rats [5]) | Amphetamine Antagonism Activity (dosage approximately neutralizing the amphetamine effect) (Rats [6]) [mg/kg] | Tail Pinch ED50 (mice [4]; mouse, in vivo) [mg/kg] | loss of righting reflex (rats) (Rats [7]) | rats died (Rats [7]; at 32 mg./kg.) | toxicity [8] | ED50 (mice [4]; Mus musculus, read-out: Tail Pinch ED50) [mg/kg] | analgesic and tranquilizing effectiveness [9] |
| --- | --- | --- | --- | --- | --- | --- | --- | --- | --- | --- | --- | --- | --- | --- | --- | --- |
| COc1ccc(Cl)c2c1CCC(CN1CCC(C(=O)N3CCCC3)CC1)=C2 | 0 | 25 | 1/5 | 0 | 25 | 0 | 0 | 1.2 | 1.2 | – | – | – | – | – | – | – |
| Codeine Sulfate [reference compound] | 60 | 80 | – | 50 | 100 | – | – | – | > 2.2 | > 32 | 15.4 | – | – | – | – | – |
| COc1ccc(Cl)c2c1CCC(CN1CCC(NC(=O)N3CCCCC3)CC1)=C2 | 0 | 0 | – | 0 | 0 | 0 | 0 | 1.2 | 1.2 | – | – | 1/5 | – | – | – | – |
| COc1ccc(Cl)c2c1CCC(CN1CCC(C(=O)N3CCCCC3)CC1)=C2 | 0 | 20 | – | 0 | 40 | 0 | 0 | 1.2 | 1.6 | – | – | 2/5 | – | – | – | – |
| COc1ccc(Cl)c2c1CCC(CNCC1CC1)=C2 | 10 | 40 | – | 0 | 20 | 0 | 40 | 1.2 | 1.2 | – | – | – | 1/5 | – | – | – |
| CCC(=O)O[C@](Cc1ccccc1)(c1ccccc1)[C@H](C)CN(C)C [d-Propoxyphene, reference compound] | 0 | 60 | – | 20 | 40 | – | – | – | 1.2 | – | – | – | – | toxic | 11.5 | – |
| CCOC(=O)N1CCN(CC2=Cc3c(Cl)ccc(OC)c3CC2)CC1 | 40 | 70 | – | 0 | 40 | 0 | 0 | 1.2 | 1.2 | – | – | – | – | – | – | – |
| COc1ccc(Cl)c2c1CCC(CN1CCC(OC(C)=O)(c3ccccc3)CC1)=C2 [1-(2-[8-Chloro-5-methoxy-3,4-dihydronaphthyl]methyl)-4-acetoxy-4-phenylpiperidine] | – | – | – | – | – | – | – | – | – | – | – | – | – | – | – | outstanding effectiveness |
| COc1ccc(Cl)c2c1CCC(CN1CCCC(C(N)=O)C1)=C2 (stereo not shown) | 0 | 0 | – | 0 | 0 | 0 | 0 | 2.2 | 1.6 | – | – | – | – | – | – | – |
